Test results: ChEMBL document CHEMBL1857833, “Screening and optimization of specific chemical series against human African Trypanosomiasis (HAT)”
Converted amounts (≈) assume the structure as drawn. “And” between values parts separate entries of the source, which are not always exact repeats. Equal values may be shown once.

How the values were obtained:
[1] = DNDI: Cytotoxicity against L929 mouse fibroblasts, CYTO-SP, 24 hour; type: toxicity, cell-based; details: mouse, L929 mouse fibroblasts
[2] = tested on: Trypanosoma brucei; assay: DNDI: Inhibition of Human African Trypanosomiasis, SBRI 427, in vitro; type: functional, organism-based
[3] = Trypanosoma brucei, SBRI 427, read-out: IC50

IC50 [2, 3] | IC50 [2] | SMILES | IC50 at 24 h [1]
1.06 µg/mL (≈ 2.63 µM) |  | Cc1ccccc1CN/C(=N\O)c1cccnc1Oc1cc(Cl)ccc1Cl | 33.6 µg/mL (≈ 83.6 µM)
0.96 µg/mL (≈ 2.73 µM) |  | CC(C)c1ccc(Oc2ncccc2/C(=N/O)NCc2ccco2)cc1 | > 50 µg/mL
1.06 µg/mL (≈ 2.58 µM) |  | CC1CC(N/C(=N\O)c2cccnc2Oc2ccccc2OC(C)C)CC(C)(C)C1 (centres undefined) | > 50 µg/mL
 | 2.68 µg/mL and 1.13 µg/mL | CC1CCCCN1CCCNCc1coc(-c2ccc(Cl)cc2Cl)n1 (centres undefined) | 42.2 µg/mL (≈ 110 µM)
> 5 µg/mL |  | C(=N\OCc1ccccc1)/c1ccccc1-c1ccccc1 | > 50 µg/mL
0.09 µg/mL (≈ 0.252 µM) |  | COc1cc(C)ccc1Oc1nc(C)ccc1/C(=N/O)NCC(C)(C)C | < 50 µg/mL
0.55 µg/mL (≈ 1.62 µM) |  | Cc1ccc(Oc2ncccc2/C(=N/O)NCC(C)C)c2c1CCC2 | > 50 µg/mL
 |  | Cc1ccc(/C(=N/O)NCC(C)(C)C)c(Oc2cc(Cl)ccc2Cl)n1 | 27 µg/mL (≈ 70.6 µM)
0.54 µg/mL (≈ 1.37 µM) |  | CC1CC(N/C(=N\O)c2cccnc2Oc2ccc(C(C)C)cc2)CC(C)(C)C1 (centres undefined) | 21.9 µg/mL (≈ 55.4 µM)
0.07 µg/mL (≈ 0.172 µM) |  | CC1CC(N/C(=N\O)c2cccnc2Oc2ccc(F)c(Cl)c2)CC(C)(C)C1 (centres undefined) | 28.2 µg/mL (≈ 69.4 µM)
> 5 µg/mL |  | COc1ccc(/C(=N/O)N(C(=O)C(C)C)C(=O)C(C)C)cc1 | > 50 µg/mL
> 5 µg/mL |  | COc1ccccc1-c1noc(C(C)C)n1 | > 50 µg/mL
> 5 µg/mL |  | CCN(CC)/C(=N\O)c1ccccc1-c1ccccc1 | > 50 µg/mL
0.91 µg/mL (≈ 2.52 µM) |  | O/N=C(\NCC1CCCCC1)c1cccnc1Oc1c(F)cccc1F | > 50 µg/mL
1.22 µg/mL (≈ 3.13 µM) | 0.94 µg/mL (≈ 2.41 µM) | C[C@H]1C(NCc2coc(-c3ccccc3Br)n2)C[C@@H]2C[C@H]1C2(C)C (some centres undefined) | 43.2 µg/mL (≈ 111 µM)
5 µg/mL (≈ 15.8 µM) |  | CCc1ccc(N/C(=N/O)c2ccccc2-c2ccccc2)cc1 | 15.6 µg/mL (≈ 49.4 µM)
> 5 µg/mL |  | CSc1ccccc1Oc1ncccc1C#N | > 50 µg/mL
 |  | Cc1cc(Oc2ccc(/C(=N/O)NCC3CC3)cn2)cc(C(C)C)c1 | 27 µg/mL (≈ 79.5 µM)
> 5 µg/mL |  | N#Cc1cccnc1Oc1ccccc1F | > 50 µg/mL
0.96 µg/mL (≈ 3.46 µM) |  | CC(C)COc1ncccc1/C(=N/O)NC1CCCC1 | > 50 µg/mL
0.28 µg/mL (≈ 0.894 µM) |  | COc1ccc(Oc2ncccc2/C(=N/O)NC2CCC2)cc1 | > 50 µg/mL
> 5 µg/mL |  | CCO/N=C/c1ccccc1-c1ccccc1 | > 50 µg/mL
0.77 µg/mL (≈ 1.98 µM) |  | O/N=C(\NCc1ccccc1)c1cccnc1Oc1cc(Cl)ccc1Cl | > 50 µg/mL

IC50 [2, 3] | IC50 [2] | SMILES | IC50 at 24 h [1]
 | 1.84 µg/mL and 0.87 µg/mL | CCCCNCc1coc(-c2ccc(C(C)(C)C)cc2)n1 | 28.1 µg/mL (≈ 98.1 µM)
0.03 µg/mL (≈ 0.071 µM) |  | CC1CC(N/C(=N\O)c2cccnc2Oc2cc(Cl)ccc2Cl)CC(C)(C)C1 (centres undefined) | 30.9 µg/mL (≈ 73.2 µM)
> 5 µg/mL |  | O/N=C(\NC1CCCCC1)c1ccc(Br)cc1 | 38 µg/mL (≈ 128 µM)
1.05 µg/mL (≈ 2.96 µM) | 2.05 µg/mL (≈ 5.78 µM) | CCOc1ccccc1-c1nc(CNC2C[C@@H]3C[C@H]([C@H]2C)C3(C)C)co1 (some centres undefined) | 27.8 µg/mL (≈ 78.4 µM)
> 5 µg/mL |  | CCc1ccccc1Oc1ncccc1/C(N)=N\O | > 5 µg/mL
0.55 µg/mL (≈ 1.43 µM) |  | CC1CCC(N/C(=N\O)c2cccnc2Oc2ccccc2OC(C)C)CC1 (centres undefined) | > 50 µg/mL
> 5 µg/mL |  | N/C(=N/O)c1cccnc1Oc1ccc2ccccc2c1 | > 50 µg/mL
0.73 µg/mL (≈ 1.79 µM) |  | CC(C)N1CCN(/C(=N\O)c2cccnc2Oc2cccc(C(F)(F)F)c2)CC1 | > 50 µg/mL
 |  | CCOc1ccccc1CN/C(=N\O)c1cccnc1Oc1ccccc1SC | > 50 µg/mL
> 5 µg/mL |  | CCO/N=C/c1ccc(OC)cc1 | > 50 µg/mL
0.08 µg/mL (≈ 0.221 µM) |  | O/N=C(\NC1CCCCC1)c1cccnc1Oc1ccc2ccccc2c1 | > 50 µg/mL
1.1 µg/mL (≈ 2.71 µM) |  | COc1cc(C)ccc1Oc1nc(C)ccc1/C(=N/O)NCc1cc(C)cc(C)c1 | > 50 µg/mL
> 5 µg/mL |  | COc1ccc(/C(CO)=N/O)cc1 | > 50 µg/mL
0.73 µg/mL (≈ 1.75 µM) |  | CCOc1ccccc1CN/C(=N\O)c1cccnc1Oc1ccc(C)c2c1CCC2 | > 50 µg/mL
> 5 µg/mL |  | N/C(=N/O)c1cccnc1Oc1cccc2ccccc12 | > 50 µg/mL
 |  | CC(C)(C)COc1ncccc1/C(=N/O)N1CCCc2ccccc21 | 26 µg/mL (≈ 76.6 µM)
0.9 µg/mL (≈ 2.44 µM) |  | CC(C)(C)CN/C(=N\O)c1ccc(Oc2cc(Cl)ccc2Cl)nc1 | > 50 µg/mL
> 5 µg/mL |  | CO/N=C/c1ccc(OC)cc1 | > 50 µg/mL
> 5 µg/mL |  | N#Cc1cccnc1Oc1cccc2ccccc12 | > 50 µg/mL
 |  | CC1CCC(N/C(=N\O)c2cccnc2Oc2ccc(F)cc2Cl)CC1 (centres undefined) | 28 µg/mL (≈ 74.1 µM)
1.09 µg/mL (≈ 2.87 µM) |  | Cc1ccc(Oc2ncccc2/C(=N/O)NCc2cccs2)c2c1CCC2 | > 50 µg/mL
0.18 µg/mL (≈ 0.546 µM) |  | COc1ccc(Oc2ncccc2/C(=N/O)NCC(C)(C)C)cc1 | > 50 µg/mL
0.39 µg/mL (≈ 1.16 µM) |  | CC(C)(C)CN/C(=N\O)c1cccnc1Oc1c(F)cccc1F | 45.4 µg/mL (≈ 135 µM)
